PubChem BioAssay (NCI)
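Where inhibition never reached the appropriate level, the endpoint shown equals the highest concentration tested. Otherwise, values were interpolated linearly from a five-concentration, 48-hour dose response in 96-well plates. GI50 marks 50% less growth. TGI denotes the concentration required for complete inhibition of growth.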

Assays:
Test in all cases: DTP human tumour cell line panel, 48 h
786-0 renal = system: 786-0 renal
A498 renal = system: A498 renal
A549 NSCLC = system: A549 NSCLC
ACHN renal = system: ACHN renal
BT-549 breast = system: BT-549 breast
CCRF-CEM leukemia = system: CCRF-CEM leukemia
DU-145 prostate = system: DU-145 prostate
EKVX NSCLC = system: EKVX NSCLC
HCC-2998 colon = system: HCC-2998 colon
HCT-116 colon = system: HCT-116 colon
HCT-15 colon = system: HCT-15 colon
HL-60(TB) leukemia = system: HL-60(TB) leukemia
HOP-62 NSCLC = system: HOP-62 NSCLC
HOP-92 NSCLC = system: HOP-92 NSCLC
HS 578T breast = system: HS 578T breast
HT29 colon = system: HT29 colon
IGROV1 ovarian = system: IGROV1 ovarian
K-562 leukemia = system: K-562 leukemia
KM12 colon = system: KM12 colon
LOX IMVI melanoma = system: LOX IMVI melanoma
M14 melanoma = system: M14 melanoma
MALME-3M melanoma = system: MALME-3M melanoma
MCF7 breast = system: MCF7 breast
MDA-MB-231 breast = system: MDA-MB-231 breast
MDA-MB-435 = system: MDA-MB-435
NCI-H226 lung = system: NCI-H226 lung
NCI-H23 lung = system: NCI-H23 lung
NCI-H460 lung = system: NCI-H460 lung
NCI-H522 lung = system: NCI-H522 lung
NCI/ADR-RES ovarian = system: NCI/ADR-RES ovarian
OVCAR-3 ovarian = system: OVCAR-3 ovarian
OVCAR-4 ovarian = system: OVCAR-4 ovarian
OVCAR-5 ovarian = system: OVCAR-5 ovarian
OVCAR-8 ovarian = system: OVCAR-8 ovarian
PC-3 prostate = system: PC-3 prostate
RPMI-8226 leukemia = system: RPMI-8226 leukemia
RXF 393 renal = system: RXF 393 renal
SF-268 CNS = system: SF-268 CNS
SF-295 CNS = system: SF-295 CNS
SF-539 CNS = system: SF-539 CNS
SK-MEL-5 melanoma = system: SK-MEL-5 melanoma
SK-OV-3 ovarian = system: SK-OV-3 ovarian
SN12C renal = system: SN12C renal
SNB-19 CNS = system: SNB-19 CNS
SNB-75 CNS = system: SNB-75 CNS
SR leukemia = system: SR leukemia
T-47D breast = system: T-47D breast
TK-10 renal = system: TK-10 renal
U251 CNS = system: U251 CNS
UACC-257 melanoma = system: UACC-257 melanoma
UACC-62 melanoma = system: UACC-62 melanoma
UO-31 renal = system: UO-31 renal

Fc1cnccc1-c1nc2ccc3[nH]ncc3c2c2c1CCCC2
GI50 (786-0 renal): 1.67 µM | TGI (786-0 renal): 5.23 µM | GI50 (A498 renal): 0.7 µM | TGI (A498 renal): 2.96 µM | GI50 (A549 NSCLC): 1.25 µM | TGI (A549 NSCLC): > 100 µM | GI50 (ACHN renal): 0.466 µM | TGI (ACHN renal): > 100 µM | GI50 (BT-549 breast): 1.28 µM | TGI (BT-549 breast): 7.74 µM | GI50 (CCRF-CEM leukemia): 1.84 µM | TGI (CCRF-CEM leukemia): > 100 µM | GI50 (DU-145 prostate): 1.67 µM | TGI (DU-145 prostate): 43.3 µM | GI50 (EKVX NSCLC): 0.442 µM | TGI (EKVX NSCLC): 13 µM | GI50 (HCC-2998 colon): 3.2 µM | TGI (HCC-2998 colon): > 100 µM | GI50 (HCT-116 colon): 0.489 µM | TGI (HCT-116 colon): 5.03 µM | GI50 (HCT-15 colon): 0.844 µM | TGI (HCT-15 colon): > 100 µM | GI50 (HL-60(TB) leukemia): 2.2 µM | TGI (HL-60(TB) leukemia): 7.3 µM | GI50 (HOP-62 NSCLC): 0.909 µM | TGI (HOP-62 NSCLC): 94.2 µM | GI50 (HOP-92 NSCLC): 1.62 µM | TGI (HOP-92 NSCLC): 9.97 µM | GI50 (HS 578T breast): 0.661 µM | TGI (HS 578T breast): 6.7 µM | GI50 (HT29 colon): 2.49 µM | TGI (HT29 colon): > 100 µM | GI50 (IGROV1 ovarian): 0.688 µM | TGI (IGROV1 ovarian): 11.2 µM | GI50 (K-562 leukemia): 2.63 µM | TGI (K-562 leukemia): > 100 µM | GI50 (KM12 colon): 0.605 µM | TGI (KM12 colon): > 100 µM | GI50 (LOX IMVI melanoma): 1.58 µM | TGI (LOX IMVI melanoma): 12.6 µM | GI50 (M14 melanoma): 1.58 µM | TGI (M14 melanoma): > 100 µM | GI50 (MALME-3M melanoma): 2.76 µM | TGI (MALME-3M melanoma): 9.06 µM | GI50 (MCF7 breast): 1.93 µM | TGI (MCF7 breast): 12.1 µM | GI50 (MDA-MB-231 breast): 2.3 µM | TGI (MDA-MB-231 breast): > 100 µM | GI50 (MDA-MB-435): 1.25 µM | TGI (MDA-MB-435): > 100 µM | GI50 (NCI-H226 lung): 2.71 µM | TGI (NCI-H226 lung): > 100 µM | GI50 (NCI-H23 lung): 2.22 µM | TGI (NCI-H23 lung): 59.9 µM | GI50 (NCI-H460 lung): 1.41 µM | TGI (NCI-H460 lung): 7.74 µM | GI50 (NCI-H522 lung): 1.31 µM | TGI (NCI-H522 lung): 8.76 µM | GI50 (NCI/ADR-RES ovarian): 2.41 µM | TGI (NCI/ADR-RES ovarian): > 100 µM | GI50 (OVCAR-3 ovarian): 2.46 µM | TGI (OVCAR-3 ovarian): 10.9 µM | GI50 (OVCAR-4 ovarian): 3.5 µM | TGI (OVCAR-4 ovarian): > 100 µM | GI50 (OVCAR-5 ovarian): 3.16 µM | TGI (OVCAR-5 ovarian): > 100 µM | GI50 (OVCAR-8 ovarian): 2.1 µM | TGI (OVCAR-8 ovarian): > 100 µM | GI50 (PC-3 prostate): 2.13 µM | TGI (PC-3 prostate): > 100 µM | GI50 (RPMI-8226 leukemia): 1.2 µM | TGI (RPMI-8226 leukemia): 6.33 µM | GI50 (RXF 393 renal): 0.612 µM | TGI (RXF 393 renal): 3.29 µM | GI50 (SF-268 CNS): 1.99 µM | TGI (SF-268 CNS): 9.82 µM | GI50 (SF-295 CNS): 2.53 µM | TGI (SF-295 CNS): > 100 µM | GI50 (SF-539 CNS): 1.29 µM | TGI (SF-539 CNS): 4.54 µM | GI50 (SK-MEL-5 melanoma): 2.35 µM | TGI (SK-MEL-5 melanoma): > 100 µM | GI50 (SK-OV-3 ovarian): 0.342 µM | TGI (SK-OV-3 ovarian): 3.66 µM | GI50 (SN12C renal): 2.14 µM | TGI (SN12C renal): > 100 µM | GI50 (SNB-19 CNS): 2.89 µM | TGI (SNB-19 CNS): > 100 µM | GI50 (SNB-75 CNS): 1.41 µM | TGI (SNB-75 CNS): 5.54 µM | GI50 (SR leukemia): 0.519 µM | TGI (SR leukemia): 5.08 µM | GI50 (T-47D breast): 1.51 µM | TGI (T-47D breast): 9.01 µM | GI50 (TK-10 renal): 0.605 µM | TGI (TK-10 renal): > 100 µM | GI50 (U251 CNS): 1.96 µM | TGI (U251 CNS): > 100 µM | GI50 (UACC-257 melanoma): 5.48 µM | TGI (UACC-257 melanoma): > 100 µM | GI50 (UACC-62 melanoma): 1.44 µM | TGI (UACC-62 melanoma): 5.75 µM | GI50 (UO-31 renal): 1.91 µM | TGI (UO-31 renal): 8.04 µM
